How the values were obtained:
[1] = biological target: Protein fem-1 homolog B/Bromodomain-containing protein 4 (Homo sapiens, UniProt O60885+Q9UK73); experiment: Protac activity at FEM1B/BRD4 in human HEK293T cells assessed as degradation of BRD4 incubated for 8 hrs by Western blot analysis; type: cell-based
MM1.S = experiment: Antiproliferative activity against human MM1.S cells incubated for 72 hrs by MTS assay; type: functional, cell-based
[2] = biological target: Androgen receptor (Homo sapiens) (UniProt P10275); experiment: Binding affinity to androgen receptor (unknown origin) at 10 uM relative to control
Androgen receptor (Homo sapiens), sequence (P10275 whole entry): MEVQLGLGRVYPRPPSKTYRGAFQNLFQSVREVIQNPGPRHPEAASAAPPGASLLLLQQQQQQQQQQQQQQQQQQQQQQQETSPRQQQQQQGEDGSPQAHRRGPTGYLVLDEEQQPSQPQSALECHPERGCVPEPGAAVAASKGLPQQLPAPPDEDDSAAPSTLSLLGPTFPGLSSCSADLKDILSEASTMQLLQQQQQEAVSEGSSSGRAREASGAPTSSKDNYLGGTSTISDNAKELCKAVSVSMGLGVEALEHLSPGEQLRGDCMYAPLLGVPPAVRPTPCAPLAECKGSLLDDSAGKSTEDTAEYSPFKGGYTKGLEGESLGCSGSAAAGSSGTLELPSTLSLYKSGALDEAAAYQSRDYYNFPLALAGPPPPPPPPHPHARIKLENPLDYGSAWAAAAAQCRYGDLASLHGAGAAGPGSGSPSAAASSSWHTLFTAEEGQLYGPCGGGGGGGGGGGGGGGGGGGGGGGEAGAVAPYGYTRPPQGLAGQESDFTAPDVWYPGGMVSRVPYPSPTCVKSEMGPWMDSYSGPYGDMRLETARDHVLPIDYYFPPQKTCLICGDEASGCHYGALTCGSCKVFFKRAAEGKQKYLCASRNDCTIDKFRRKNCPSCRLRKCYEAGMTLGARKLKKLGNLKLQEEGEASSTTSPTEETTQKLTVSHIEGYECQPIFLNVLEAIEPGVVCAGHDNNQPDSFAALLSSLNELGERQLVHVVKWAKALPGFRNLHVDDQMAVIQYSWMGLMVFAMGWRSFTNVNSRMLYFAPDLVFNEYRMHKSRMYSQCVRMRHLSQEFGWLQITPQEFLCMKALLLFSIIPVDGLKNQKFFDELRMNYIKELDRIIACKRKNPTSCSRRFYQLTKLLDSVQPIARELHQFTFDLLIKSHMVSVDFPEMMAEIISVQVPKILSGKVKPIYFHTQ

LNCaP = experiment: Antiproliferative activity against human LNCaP cells; type: functional, cell-based
[3] = biological target: von Hippel-Lindau disease tumor suppressor/Histone deacetylase 3 (Homo sapiens, UniProt O15379+P40337); experiment: Protac activity at VHL/HDAC3 in human MDA-MB-468 assessed as degradation of HDAC3 incubated for 14 hrs by Western blot analysis; type: cell-based
[4] = biological target: von Hippel-Lindau disease tumor suppressor/Epidermal growth factor receptor (Homo sapiens, UniProt P00533+P40337); experiment: Protac activity at VHL/wildtype EGFR in human OVCAR-8 cells assessed as degradation of wild type EGFR incubated for 24 hrs by immunoblot assay; type: cell-based
[5] = biological target: Protein cereblon/Cyclin-dependent kinase 6 (Homo sapiens, UniProt Q00534+Q96SW2); experiment: Protac activity at CRBN/CDK6 in human MDA-MB-231 cells; type: cell-based
[6] = biological target: Protein cereblon/Cyclin-dependent kinase 4 (Homo sapiens, UniProt P11802+Q96SW2); experiment: Protac activity at CRBN/CDK4 in human MDA-MB-231 cells; type: cell-based
Protein cereblon/Cyclin-dependent kinase 4, sequence (P11802 whole entry): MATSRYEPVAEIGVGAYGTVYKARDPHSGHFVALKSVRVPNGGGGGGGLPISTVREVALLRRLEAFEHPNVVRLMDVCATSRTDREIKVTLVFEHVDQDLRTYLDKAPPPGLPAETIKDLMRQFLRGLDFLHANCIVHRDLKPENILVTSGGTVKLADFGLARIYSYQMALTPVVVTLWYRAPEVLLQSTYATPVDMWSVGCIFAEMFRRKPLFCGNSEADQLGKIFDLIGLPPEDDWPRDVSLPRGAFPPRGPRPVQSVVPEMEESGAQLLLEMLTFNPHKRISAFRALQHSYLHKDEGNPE
Protein cereblon/Cyclin-dependent kinase 4, sequence (Q96SW2 whole entry): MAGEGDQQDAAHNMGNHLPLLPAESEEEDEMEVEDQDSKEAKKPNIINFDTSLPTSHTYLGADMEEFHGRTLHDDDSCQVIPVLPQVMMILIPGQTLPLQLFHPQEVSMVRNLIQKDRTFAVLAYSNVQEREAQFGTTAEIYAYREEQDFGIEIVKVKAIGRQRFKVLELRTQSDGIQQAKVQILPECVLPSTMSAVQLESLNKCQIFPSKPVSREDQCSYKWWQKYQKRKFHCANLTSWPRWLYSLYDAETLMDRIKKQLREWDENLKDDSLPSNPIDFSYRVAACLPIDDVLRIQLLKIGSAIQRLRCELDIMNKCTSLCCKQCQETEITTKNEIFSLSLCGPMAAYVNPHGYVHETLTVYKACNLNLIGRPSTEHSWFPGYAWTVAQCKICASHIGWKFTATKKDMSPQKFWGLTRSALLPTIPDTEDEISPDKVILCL

[7] = biological target: T1, von Hippel-Lindau disease tumor suppressor/Bromodomain-containing protein 3 (Homo sapiens, UniProt P40337+Q15059); experiment: Protac activity at VHL/BRD3 in human HeLa cells assessed as degradation of BRD3 incubated for 24 hrs by Western blotting analysis; type: cell-based
T1 sequence (Q15059 whole entry): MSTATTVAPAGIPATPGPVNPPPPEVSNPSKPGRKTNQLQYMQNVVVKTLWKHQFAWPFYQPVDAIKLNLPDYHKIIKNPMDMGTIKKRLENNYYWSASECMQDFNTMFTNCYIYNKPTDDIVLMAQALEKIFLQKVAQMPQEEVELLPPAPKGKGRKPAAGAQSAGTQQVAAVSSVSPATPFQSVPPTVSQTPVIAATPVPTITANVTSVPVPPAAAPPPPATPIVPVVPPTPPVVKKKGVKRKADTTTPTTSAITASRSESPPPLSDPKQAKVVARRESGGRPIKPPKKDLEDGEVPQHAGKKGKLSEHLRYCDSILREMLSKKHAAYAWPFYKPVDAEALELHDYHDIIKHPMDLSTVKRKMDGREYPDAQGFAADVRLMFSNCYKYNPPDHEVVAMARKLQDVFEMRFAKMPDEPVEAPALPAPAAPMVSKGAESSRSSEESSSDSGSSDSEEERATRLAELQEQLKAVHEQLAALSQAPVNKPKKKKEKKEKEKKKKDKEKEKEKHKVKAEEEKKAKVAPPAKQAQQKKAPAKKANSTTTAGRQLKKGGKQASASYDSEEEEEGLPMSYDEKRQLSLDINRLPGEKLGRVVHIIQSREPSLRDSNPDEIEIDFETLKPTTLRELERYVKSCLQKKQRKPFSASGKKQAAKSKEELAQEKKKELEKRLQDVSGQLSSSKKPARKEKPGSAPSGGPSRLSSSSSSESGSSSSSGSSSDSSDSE
T1 sequence (P40337 whole entry): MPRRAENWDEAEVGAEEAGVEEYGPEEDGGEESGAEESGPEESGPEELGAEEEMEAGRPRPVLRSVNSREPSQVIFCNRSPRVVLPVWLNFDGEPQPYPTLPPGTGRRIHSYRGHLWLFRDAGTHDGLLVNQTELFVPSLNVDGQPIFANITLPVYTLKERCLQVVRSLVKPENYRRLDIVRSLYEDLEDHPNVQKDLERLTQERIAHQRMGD

[8] = biological target: T2, von Hippel-Lindau disease tumor suppressor/Bromodomain-containing protein 2 (Homo sapiens, UniProt P25440+P40337); experiment: Protac activity at VHL/BRD2 in human HeLa cells assessed as degradation of BRD2 incubated for 24 hrs by Western blotting analysis; type: cell-based
T2 sequence (P25440 whole entry): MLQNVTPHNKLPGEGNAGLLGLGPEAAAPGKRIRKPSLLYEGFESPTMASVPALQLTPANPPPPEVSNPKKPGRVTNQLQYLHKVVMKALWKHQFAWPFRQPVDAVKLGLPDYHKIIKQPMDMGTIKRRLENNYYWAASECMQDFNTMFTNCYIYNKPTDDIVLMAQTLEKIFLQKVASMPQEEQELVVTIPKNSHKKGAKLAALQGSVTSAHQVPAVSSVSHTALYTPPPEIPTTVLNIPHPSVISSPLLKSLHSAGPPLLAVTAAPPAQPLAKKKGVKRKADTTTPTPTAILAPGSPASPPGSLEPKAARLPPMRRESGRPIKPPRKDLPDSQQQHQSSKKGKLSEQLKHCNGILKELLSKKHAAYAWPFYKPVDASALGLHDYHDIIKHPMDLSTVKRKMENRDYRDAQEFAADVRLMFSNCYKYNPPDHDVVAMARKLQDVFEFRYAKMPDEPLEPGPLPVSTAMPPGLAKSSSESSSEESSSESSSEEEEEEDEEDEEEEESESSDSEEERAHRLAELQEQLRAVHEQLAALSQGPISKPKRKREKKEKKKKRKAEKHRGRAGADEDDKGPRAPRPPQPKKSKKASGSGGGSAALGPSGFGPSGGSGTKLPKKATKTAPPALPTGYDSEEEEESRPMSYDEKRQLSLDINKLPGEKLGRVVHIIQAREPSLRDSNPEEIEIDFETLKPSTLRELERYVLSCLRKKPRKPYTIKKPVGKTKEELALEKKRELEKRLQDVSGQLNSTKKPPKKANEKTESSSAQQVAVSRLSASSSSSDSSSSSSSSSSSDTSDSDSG
T2 sequence (P40337 whole entry): as the sequence (P40337 whole entry) above

MV4-11 = experiment: Antiproliferative activity against human MV4-11 cells incubated for 48 to 72 hrs by celltiter-glo luminescent cell viability assay; type: functional, cell-based
[9] = biological target: T3, von Hippel-Lindau disease tumor suppressor/Bromodomain-containing protein 4 (Homo sapiens, UniProt O60885+P40337); experiment: Protac activity at VHL/BRD4 in human HeLa cells assessed as degradation of BRD4 incubated for 24 hrs by Western blotting analysis; type: cell-based
T3 sequence (P40337 whole entry, looked up, other chains not shown): as the sequence (P40337 whole entry) above

[10] = biological target: T3, von Hippel-Lindau disease tumor suppressor/Bromodomain-containing protein 4; experiment: Protac activity at VHL/BRD4 in human HCT-116 cells assessed as degradation of BRD4 incubated for 24 hrs by immunoblot assay; type: cell-based
NCI-H358 = experiment: Antiproliferative activity against human NCI-H358 cells assessed as inhibition of cell growth incubated for 5 days by celltiter-glo luminescent cell viability assay; type: functional, cell-based; conditions: NCI-H358, 120 h
[11] = biological target: Protein cereblon/Protein deacetylase HDAC6 (Homo sapiens, UniProt Q96SW2+Q9UBN7); experiment: Protac activity at CRBN/HDAC6 in human MM1.S assessed as degradation of HDAC6 incubated for 6 hrs by ELISA; type: cell-based
[12] = biological target: von Hippel-Lindau disease tumor suppressor/Cyclin-dependent kinase 6 (Homo sapiens, UniProt P40337+Q00534); experiment: Protac activity at VHL/CDK6 in human MM1.S cells assessed as degradation of CDK6 incubated for 16 hrs by immunoblot assay; type: cell-based
von Hippel-Lindau disease tumor suppressor/Cyclin-dependent kinase 6, sequence (Q00534 whole entry): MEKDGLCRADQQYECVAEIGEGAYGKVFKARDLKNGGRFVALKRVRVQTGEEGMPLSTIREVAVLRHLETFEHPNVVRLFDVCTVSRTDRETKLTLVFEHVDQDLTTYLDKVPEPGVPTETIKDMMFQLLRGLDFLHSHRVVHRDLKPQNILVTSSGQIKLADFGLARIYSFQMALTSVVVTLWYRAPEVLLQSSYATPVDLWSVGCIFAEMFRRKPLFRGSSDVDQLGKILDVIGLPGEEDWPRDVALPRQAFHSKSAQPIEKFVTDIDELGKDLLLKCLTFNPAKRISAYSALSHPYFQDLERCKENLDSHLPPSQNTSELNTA
von Hippel-Lindau disease tumor suppressor/Cyclin-dependent kinase 6, sequence (P40337 whole entry): as the sequence (P40337 whole entry) above

[13] = biological target: Protein cereblon/GTPase KRas (Homo sapiens, UniProt P01116+Q96SW2, G12C); experiment: Protac activity at CRBN/KRAS G12C mutant in human NCI-H358 cells assessed as degradation of KRAS G12C mutant; type: cell-based
HeLa = experiment: Antiproliferative activity against human HeLa cells; type: functional, cell-based
OVCAR-8 = experiment: Antiproliferative activity against human OVCAR-8 cells; type: functional, cell-based
T47D = experiment: Antiproliferative activity against human T47D cells; type: functional, cell-based
[14] = biological target: Protein cereblon/Bromodomain-containing protein 4 (Homo sapiens, UniProt O60885+Q96SW2); experiment: Protac activity at CRBN/BRD4 (unknown origin); type: protein assay
[15] = Cytotoxicity against HEK293 cells assessed as inhibition of cell growth; type: toxicity, cell-based; conditions: human
[16] = biological target: T1, von Hippel-Lindau disease tumor suppressor/Bromodomain-containing protein 3; experiment: Protac activity at VHL/BRD3 in HEK293 cells assessed as degradation of BRD3 incubated for 4 hrs by Western blot analysis; type: cell-based
[17] = biological target: T3, von Hippel-Lindau disease tumor suppressor/Bromodomain-containing protein 4; experiment: Protac activity at VHL/BRD4 in HEK293 cells assessed as degradation of BRD4 incubated for 4 hrs by Western blot analysis; type: cell-based
[18] = biological target: T2, von Hippel-Lindau disease tumor suppressor/Bromodomain-containing protein 2; experiment: Protac activity at VHL/BRD2 in HEK293 cells assessed as degradation of BRD2 incubated for 4 hrs by Western blot analysis; type: cell-based
MCF7 [19] = experiment: Antiproliferative activity against human MCF7 cells assessed as inhibition of cell growth measured after 5 days by PrestoBlue cell viability assay; type: functional, cell-based; conditions: MCF7, 120 h
[20] = biological target: T4, von Hippel-Lindau disease tumor suppressor/GTPase KRas (Homo sapiens, UniProt P01116+P40337, G12C); experiment: Protac activity at VHL/KRAS G12C mutant in human NCI-H2030 cells assessed as degradation of KRAS G12C mutant incubated for 24 hrs by immunoblot assay; type: cell-based
T4 sequence (P01116 whole entry G12C, stated change not applied): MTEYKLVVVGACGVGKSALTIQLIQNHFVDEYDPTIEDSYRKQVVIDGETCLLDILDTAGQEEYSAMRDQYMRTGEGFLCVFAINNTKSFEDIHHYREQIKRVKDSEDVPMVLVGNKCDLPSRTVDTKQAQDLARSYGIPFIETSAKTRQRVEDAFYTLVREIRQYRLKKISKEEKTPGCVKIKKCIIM
T4 sequence (P40337 whole entry, stated change not applied): as the sequence (P40337 whole entry) above

[21] = biological target: T4, von Hippel-Lindau disease tumor suppressor/GTPase KRas; experiment: Protac activity at VHL/KRAS G12C mutant in human SW1573 cells assessed as degradation of KRAS G12C mutant incubated for 24 hrs by immunoblot assay; type: cell-based
[22] = biological target: T4, von Hippel-Lindau disease tumor suppressor/GTPase KRas; experiment: Protac activity at VHL/KRAS G12C mutant in human NCI-H23 cells assessed as degradation of KRAS G12C mutant incubated for 24 hrs by immunoblot assay; type: cell-based
[23] = biological target: T4, von Hippel-Lindau disease tumor suppressor/GTPase KRas; experiment: Protac activity at VHL/KRAS G12C mutant in human MIA PaCa-2 cells assessed as degradation of KRAS G12C mutant incubated for 24 hrs by immunoblot assay; type: cell-based
[24] = biological target: T4, von Hippel-Lindau disease tumor suppressor/GTPase KRas; experiment: Protac activity at VHL/KRAS G12C mutant in human NCI-H358 cells assessed as degradation of KRAS G12C mutant incubated for 24 hrs by immunoblot assay; type: cell-based
[25] = biological target: von Hippel-Lindau disease tumor suppressor/Estrogen receptor (Homo sapiens, UniProt P03372+P40337); experiment: Protac activity at VHL/ER alpha in human MCF7 cells assessed as degradation of ER alpha incubated for 6 hrs by Western blot analysis; type: cell-based
MCF7 [26] = experiment: Antiproliferative activity against human MCF7 cells assessed as cell growth inhibition incubated for 6 days with media replacement for every 2 to 3 days by MTT assay; type: functional, cell-based
BaF3 = experiment: Antiproliferative activity against mouse BaF3 cells harboring EGFR L858R/T790M mutant assessed as cell growth inhibition incubated for 72 hrs; type: functional, cell-based; conditions: BaF3, 72 h

C#CCCN(C(=O)CCl)c1ccc2c(c1)OCCN2CC(=O)NCCCCNC(=O)C[C@@H]1N=C(c2ccc(Cl)cc2)c2c(sc(C)c2C)-n2c(C)nnc21
EC50 [1]: 250 nM

Nc1ccccc1NC(=O)c1ccc(COc2cccc3c2CN(C2CCC(=O)NC2=O)C3=O)cc1 (stereo not given)
IC50 (MM1.S): 43 nM

CC1(C)C(=O)N(c2ccc(C#N)c(C(F)(F)F)c2)C(=S)N1COCCOCCOn1cc(CCCCCC(=O)CC23CC4CC(CC(C4)C2)C3)nn1
Activity [2]: 82.6%
IC50 (LNCaP): 1750 nM

CCCNNC(=O)c1ccc(-c2ccc(NC(=O)CCCCCCC(=O)NC(C(=O)N3C[C@@H](O)C[C@@H]3C(=O)N[C@H](C)c3ccc(-c4scnc4C)cc3)C(C)(C)C)cc2)cc1 (stereo not given in full)
EC50 [3]: 42 nM

Cc1ncsc1-c1ccc(CNC(=O)[C@@H]2C[C@@H](O)CN2C(=O)[C@@H](NC(=O)COCCOCCOCCOc2ccc(-c3ccc4ncnc(Nc5ccc(OCc6cccc(F)c6)c(Cl)c5)c4c3)cc2)C(C)(C)C)cc1
EC50 [4]: 39.2 nM

CC(=O)C1=C(O)N(C2CCCC2)c2nc(Nc3ccc(N4CCN(Cc5cn(CCCCCNc6cccc7c6C(=O)N(C6CCC(=O)NC6=O)C7=O)nn5)CC4)cn3)ncc2C1C (stereo not given)
EC50 [5]: 34.1 nM
EC50 [6]: 12.9 nM

Cc1ncsc1-c1ccc2c(c1)OCCOCCO[C@H](NC(=O)C[C@@H]1N=C(c3ccc(Cl)cc3)c3c(sc(C)c3C)-n3c(C)nnc31)COCCOCCOCC(=O)N[C@H](C(C)(C)C)C(=O)N1C[C@@H](O)C[C@@H]1C(=O)NC2
EC50 [7]: > 125 nM
EC50 [8]: > 125 nM
EC50 (MV4-11): 300 nM
EC50 [9]: 25 nM

COc1cc(C(=O)NCCOCCOCCOCCNC(=O)C[C@@H]2N=C(c3ccc(Cl)cc3)c3c(sc(C)c3C)-n3c(C)nnc32)ccc1NC(=O)[C@@H]1N[C@@H](CC(C)(C)C)[C@](C#N)(c2ccc(Cl)cc2F)[C@H]1c1cccc(Cl)c1F
EC50 [10]: 23.1 nM

C=CC(=O)N1CCN(c2nc(NCCCN3CCN(CCCNc4cccc5c4C(=O)N(C4CCC(=O)NC4=O)C5=O)CC3)nc3cc(Cl)c(-c4cc(O)cc5ccccc45)c(F)c23)CC1 (stereo not given)
IC50 (NCI-H358): 510 nM

CN(C)C(=O)c1cn(C2CCCC2)c2cnc(Nc3ccc(N4CCN(c5cn(CCCCCNc6cccc7c6C(=O)N(C6CCC(=O)NC6=O)C7=O)nn5)CC4)cn3)nc12 (stereo not given)
EC50 [6]: 97 nM

O=C(CCCCCCC(=O)N/N=C/c1ccc(OCCCC#Cc2cccc3c2CN(C2CCC(=O)NC2=O)C3=O)cc1)NO (stereo not given)
EC50 [11]: 1.9 nM

CC(=O)C1=C(O)N(C2CCCC2)c2nc(Nc3ccc(N4CCN(CCOCCOCCOc5cc(-c6scnc6C)ccc5CNC(=O)[C@@H]5C[C@@H](O)CN5C(=O)C(NC(=O)C5(F)CC5)C(C)(C)C)CC4)cn3)ncc2C1C (stereo not given in full)
EC50 [12]: 5.1 nM

COc1cc(Cl)c(-c2cc(Cl)ccc2Cl)cc1C(=O)N1CCN(C(=O)/C=C/C(=O)NCCCCCCNc2cccc3c2C(=O)N(C2CCC(=O)NC2=O)C3=O)CC1 (stereo not given)
EC50 [13]: 1250 nM

Cc1ncsc1-c1ccc(CNC(=O)[C@@H]2C[C@@H](OC(=O)CCCCn3cc(NC(=O)CC[C@@H](NC(=O)c4ccc(NCc5cnc6nc(N)[nH]c(=O)c6n5)cc4)C(=O)O)nn3)CN2C(=O)[C@@H](NC(=O)COCCCOCCNC(=O)C[C@@H]2N=C(c3ccc(Cl)cc3)c3c(sc(C)c3C)-n3c(C)nnc32)C(C)(C)C)cc1
IC50 (HeLa): 246 nM
IC50 (OVCAR-8): 297 nM
IC50 (T47D): 18 nM

Cc1sc2c(c1C)C(c1ccc(Cl)cc1)=N[C@@H](CC(=O)NCCCCCNC(=O)COc1ccc(C3CCC(=O)NC3=O)cc1)c1nnc(C)n1-2 (stereo not given in full)
EC50 [14]: 0.87 nM

Cc1ncsc1-c1ccc(CNC(=O)[C@H]2C[C@H](O)CN2C(=O)[C@H](NC(=O)COCC(C)(COCCOCCOCCNC(=O)C[C@H]2N=C(c3ccc(Cl)cc3)c3c(sc(C)c3C)-n3c(C)nnc32)COCCOCCOCCNC(=O)C[C@H]2N=C(c3ccc(Cl)cc3)c3c(sc(C)c3C)-n3c(C)nnc32)C(C)(C)C)cc1
IC50 [15]: 1.1 nM
EC50 [16]: 3.3 nM
EC50 [17]: 0.7 nM
EC50 [18]: 1.1 nM

CCN(CCCCCCCC(=O)NC(C(=O)N1C[C@@H](O)C[C@@H]1C(=O)N[C@H](C)c1ccc(-c2scnc2C)cc1)C(C)(C)C)CCOc1ccc(C(=O)c2c(-c3ccc(O)cc3)sc3cc(O)ccc23)cc1 (stereo not given in full)
IC50 (MCF7 [19]): 0.8 nM

C=C(F)C(=O)N1CCN(c2nc(O[C@@H]3CCCN3CCCOCCC(=O)N[C@H](C(=O)N3C[C@H](O)C[C@H]3C(=O)NCc3ccc(-c4scnc4C)cc3)C(C)(C)C)nc3c2CCN(c2cccc4cccc(Cl)c24)C3)C[C@H]1CC#N
EC50 [20]: 250 nM
EC50 [21]: 250 nM
EC50 [22]: 250 nM
EC50 [23]: 250 nM
EC50 [24]: 250 nM

Cc1ncsc1-c1ccc([C@@H](C)NC(=O)[C@H]2C[C@H](O)CN2C(=O)[C@H](NC(=O)CCCCOc2ccc(CCNC(=O)c3ccc(C(=O)c4c(-c5ccc(O)cc5)sc5cc(O)ccc45)cc3)cc2)C(C)(C)C)cc1
EC50 [25]: 1.1 nM
IC50 (MCF7 [26]): 13.2 nM

O=C1CCC(N2C(=O)c3cccc(NCCOCCOCCOCCN4CCN(c5ccc(-c6ccc7c(c6)C(=O)N(C(C(=O)Nc6nccs6)c6ccccc6)C7)cn5)CC4)c3C2=O)C(=O)N1 (stereo not given)
IC50 (BaF3): 96 nM

Source: ChEMBL document CHEMBL5247611, “A bibliometric analysis of PROTAC from 2001 to 2021” (Eur J Med Chem, 2022)
